Like-named read-outs stand apart in the source and are kept apart here. Some results are limits rather than exact numbers.

In this assay the target is T1, chimeric human H3 receptor (Homo sapiens, UniProt Q9Y5N1, E19D).
T1 construct: made in house; host or cells: Sf9 insect cells (baculovirus infection); P2 membrane preparation
Description: Chimeric human H3 receptor GTP binding assay (agonist-stimulated GTP-gamma35S binding, Example 7). Format: biochemical. Particulars: read-out: Ki. Summed up:
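IC50 values come from non-linear regression of dose-response curves of filter-bound GTP-gamma^35S, counted by scintillation. Membranes were from infected Sf9 cells carrying receptor plus G-protein subunits, 35 μg/tube, with 10 μM GDP present.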
A general note: Binding of GTPγS marks nucleotide exchange on a G protein.

Where [1] appears, read: Table II "Ki", symbol "*": Ki in the assay of Example 7.
[2] abbreviates: assay of Example 7, symbol * in column headed Ki of Table II.
Setting [3] is: Table II, "*" in Ki, assay of Example 7.
The mark [4] stands for this setting: Table II, assay of Example 7, "*" in Ki.
Setting [5] is: assay of Example 7, "*" in Ki of Table II.
The mark [6] stands for this setting: "*" in Ki of Table II, assay of Example 7.

T1 sequence (Q9Y5N1 with tags, fused parts or gaps E19D): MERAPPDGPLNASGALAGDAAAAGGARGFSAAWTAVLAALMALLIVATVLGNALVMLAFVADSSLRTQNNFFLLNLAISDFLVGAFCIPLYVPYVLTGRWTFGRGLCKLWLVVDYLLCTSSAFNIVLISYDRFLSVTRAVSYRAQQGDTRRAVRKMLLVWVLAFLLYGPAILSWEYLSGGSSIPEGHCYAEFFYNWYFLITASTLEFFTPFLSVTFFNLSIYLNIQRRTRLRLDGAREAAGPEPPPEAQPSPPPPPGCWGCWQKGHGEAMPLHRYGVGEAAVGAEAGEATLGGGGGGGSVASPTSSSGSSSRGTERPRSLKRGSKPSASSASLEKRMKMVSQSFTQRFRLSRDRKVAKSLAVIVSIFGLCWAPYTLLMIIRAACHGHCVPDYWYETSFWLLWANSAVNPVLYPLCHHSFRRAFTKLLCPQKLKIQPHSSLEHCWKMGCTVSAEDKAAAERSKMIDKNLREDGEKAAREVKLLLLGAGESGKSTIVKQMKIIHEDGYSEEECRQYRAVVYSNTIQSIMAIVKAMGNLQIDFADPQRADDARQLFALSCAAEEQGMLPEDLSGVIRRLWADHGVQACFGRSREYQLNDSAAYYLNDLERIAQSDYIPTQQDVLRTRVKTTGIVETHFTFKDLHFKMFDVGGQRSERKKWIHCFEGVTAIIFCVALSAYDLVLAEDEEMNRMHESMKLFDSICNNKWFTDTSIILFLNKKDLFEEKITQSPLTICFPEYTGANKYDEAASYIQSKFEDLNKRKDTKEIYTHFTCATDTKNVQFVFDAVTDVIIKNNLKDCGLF

For the molecule `O=C1CCc2cc(N3CCN(C(=O)OCC(=O)N4CCN(C5CCCC5)CC4)CC3)ccc21` [Compound 909, 2-(4-cyclopentylpiperazin-1-yl)-2-oxoethyl 4-(1-oxo-2,3-dihydro-1H-inden-5-yl)piperazine-1-carboxylate], the Ki under setting [1] is less than 1000 nM.

Consider `CC(=O)c1ccc(N2CCN(C(C)C(=O)N3CCN(C4CCCC4)CC3)CC2)cc1` (centres unmarked) [Compound 323, 1-(4-{4-[2-(4-cyclopentylpiperazin-1-yl)-1-methyl-2-oxoethyl]piperazin-1-yl}phenyl)ethanone], for which, under setting [2], the Ki is less than 1000 nM. Still for that read-out and setting: with `CC(=O)c1ccc(N2CCN(CC(=O)N3CCN(C4CCC4)CC3)[C@@H](C)C2)cc1` [Compound 307, 1-(4-{4-[2-(4-cyclobutylpiperazin-1-yl)-2-oxoethyl]-3-methylpiperazin-1-yl}phenyl)ethanone] the figure was less than 1000 nM.

For the molecule `O=C(CN1CCN(c2ccc(-c3cc(Cl)ccc3Cl)cc2)CC1)N1CCN(C2CCC2)CC1` [Compound 682, 1-cyclobutyl-4-{[4-(2′,5′-dichlorobiphenyl-4-yl)piperazin-1-yl]acetyl}piperazine], the Ki under setting [3] was less than 1000 nM.

Regarding `O=C(CN1CCN(c2ccc(-c3cc(C(F)(F)F)cc(C(F)(F)F)c3)nn2)CC1)N1CCN(C2CCC2)CC1` [Compound 998, 3-[3,5-bis(trifluoromethyl)phenyl]-6-{4-[2-(4-cyclobutylpiperazin-1-yl)-2-oxoethyl]piperazin-1-yl}pyridazine], the Ki under setting [4] was less than 1000 nM. Take `CCSc1ccc(C(=O)NC2CCN(CC(=O)N3CCN(C4CCC4)CC3)CC2)cc1` [Compound 1223, N-{1-[2-(4-cyclobutylpiperazin-1-yl)-2-oxoethyl]piperidin-4-yl}-4-(ethylthio)benzamide]: under setting [5], the Ki was less than 1000 nM. On to `CC(=O)c1ccc(N2CCC(C(C)(C)C(=O)N3CCN(C4CCCC4)CC3)CC2)cc1` [Compound 322, 1-(4-{4-[2-(4-cyclopentylpiperazin-1-yl)-1,1-dimethyl-2-oxoethyl]piperidin-1-yl}phenyl)ethanone], for which the Ki under setting [2] was less than 1000 nM. With `CC(=O)c1ccc(N2CCN(CC(=O)N3CCN(C4CCC4)CC3)C(=O)C2)cc1` [Compound 1096, 4-(4-acetylphenyl)-1-[2-(4-cyclobutylpiperazin-1-yl)-2-oxoethyl]piperazin-2-one], under setting [4], the Ki is less than 1000 nM.

Turning to `Cc1cc(C)cc(C(=O)NC2CCN(CC(=O)N3CCN(C4CCC4)CC3)CC2)c1` [Compound 1211, N-{1-[2-(4-cyclobutylpiperazin-1-yl)-2-oxoethyl]piperidin-4-yl}-3,5-dimethylbenzamide], under setting [5], the Ki was less than 1000 nM.

Take `O=C(CN1CCN(c2cnc(-c3ccc(Cl)cc3F)cn2)CC1)N1CCN(C2CCC2)CC1` [Compound 902, 2-(4-chloro-2-fluorophenyl)-5-{4-[2-(4-cyclobutylpiperazin-1-yl)-2-oxoethyl]piperazin-1-yl}pyrazine]: the inhibition constant (Ki) under setting [1] was less than 1000 nM. The same measure, in the same setting: as for `COc1ccc(Cl)cc1-c1cnc(N2CCN(CC(=O)N3CCN(C4CCC4)CC3)CC2)cn1` [Compound 911, 2-(5-chloro-2-methoxyphenyl)-5-{4-[2-(4-cyclobutylpiperazin-1-yl)-2-oxoethyl]piperazin-1-yl}pyrazine], the figure is less than 1000 nM; as for `COc1ccc(N2CCN(CC(=O)N3CCN(C4CCC4)CC3)CC2)cc1` [Compound 782, 1-cyclobutyl-4-{[4-(4-methoxyphenyl)piperazin-1-yl]acetyl}piperazine], less than 1000 nM. For the molecule `O=C(CN1CCN(c2ccc(-c3cc(F)cc(F)c3)nn2)CC1)N1CCN(C2CCC2)CC1` [Compound 1052, 3-{4-[2-(4-cyclobutylpiperazin-1-yl)-2-oxoethyl]piperazin-1-yl}-6-(3,5-difluorophenyl)pyridazine], the Ki under setting [4] was less than 1000 nM. `CCCCCNC(=O)c1ccc(N2CCN(CC(=O)N3CCN(C4CCC4)CC3)CC2)nc1` [Compound 1178, 6-{4-[2-(4-cyclobutylpiperazin-1-yl)-2-oxoethyl]piperazin-1-yl}-N-pentylnicotinamide]: the Ki under setting [5] is less than 1000 nM. In the case of `COc1ccc(-c2ccc(N3CCN(CC(=O)N4CCN(C5CCC5)CC4)CC3)cc2)c(OC)c1` [Compound 678, 1-cyclobutyl-4-{[4-(2′,4′-dimethoxybiphenyl-4-yl)piperazin-1-yl]acetyl}piperazine], under setting [3], the Ki is less than 1000 nM.

For the molecule `O=C(CN1CCN(c2ccc([N+](=O)[O-])cc2)CC1)N1CCN(C2CCCC2)CC1` [Compound 840, 1-cyclopentyl-4-{[4-(4-nitrophenyl)piperazin-1-yl]acetyl}piperazine], the Ki under setting [1] was less than 1000 nM. For `CCCNC(=O)c1ccc(N2CCN(CC(=O)N3CCN(C4CCC4)CC3)CC2)nc1` [Compound 1175, 6-{4-[2-(4-cyclobutylpiperazin-1-yl)-2-oxoethyl]piperazin-1-yl}-N-propylnicotinamide], under setting [5], the Ki is less than 1000 nM. Regarding `Cc1cccc(C)c1N1CCN(CC(=O)N2CCN(C3CCC3)CC2)CC1` [Compound 698, 1-cyclobutyl-4-{[4-(2,6-dimethylphenyl)piperazin-1-yl]acetyl}piperazine], under setting [3], the Ki is less than 1000 nM. As to `O=C(NC1CCCC1)c1ccc(N2CCN(CC(=O)N3CCN(C4CCC4)CC3)CC2)nn1` [Compound 1166, 6-{4-[2-(4-cyclobutylpiperazin-1-yl)-2-oxoethyl]piperazin-1-yl}-N-cyclopentylpyridazine-3-carboxamide], the Ki under setting [5] is less than 1000 nM. On the same count and under the same terms, as for `O=C(NC1CCN(CC(=O)N2CCN(C3CCC3)CC2)CC1)C1CCCCCC1` [Compound 1228, N-{1-[2-(4-cyclobutylpiperazin-1-yl)-2-oxoethyl]piperidin-4-yl} cycloheptanecarboxamide], the figure is less than 1000 nM. Take `O=C(CN1CCN(c2ccc(-c3ccc4c(c3)OCCO4)nn2)CC1)N1CCN(C2CCC2)CC1` [Compound 1035, 3-{4-[2-(4-cyclobutylpiperazin-1-yl)-2-oxoethyl]piperazin-1-yl}-6-(2,3-dihydro-1,4-benzodioxin-6-yl)pyridazine]: the Ki under setting [4] was less than 1000 nM.

For the molecule `O=C(CN1CCN(c2nc3ccccc3n2Cc2ccc(F)cc2)CC1)N1CCN(C2CCCC2)CC1` [Compound 978, 2-{4-[2-(4-cyclopentylpiperazin-1-yl)-2-oxoethyl]piperazin-1-yl}-1-(4-fluorobenzyl)-1H-benzimidazole], the Ki under setting [4] is less than 1000 nM. Same read-out and setting: as for `CCOc1ccccc1-c1cnc(N2CCN(CC(=O)N3CCN(C4CCC4)CC3)CC2)cn1` [Compound 955, 2-{4-[2-(4-cyclobutylpiperazin-1-yl)-2-oxoethyl]piperazin-1-yl}-5-(2-ethoxyphenyl)pyrazine], the figure is less than 1000 nM.

Turning to `CC(C)c1ccc(-c2ccc(N3CCN(CC(=O)N4CCN(C5CCC5)CC4)CC3)cc2)cc1` [Compound 778, 1-cyclobutyl-4-{[4-(4′-isopropylbiphenyl-4-yl)piperazin-1-yl]acetyl}piperazine], the Ki under setting [1] was less than 1000 nM.

In the case of `CC(=O)NC1CCN(CC(=O)N2CCN(C(C)C)CC2)C1` (centres unmarked) [Compound 1259, N-{1-[2-(4-isopropylpiperazin-1-yl)-2-oxoethyl]pyrrolidin-3-yl}acetamide], the Ki under setting [5] is less than 1000 nM.

On to `CCC(C)N1CCN(C(=O)CN2CCN(c3cccc(C(F)(F)F)c3)CC2)CC1` (centres unmarked) [Compound 853, 1-sec-butyl-4-({4-[3-(trifluoromethyl)phenyl]piperazin-1-yl}acetyl)piperazine], for which, under setting [1], the Ki is less than 1000 nM. Take `CC1CC(C)CN(C(=O)c2ccc(N3CCN(CC(=O)N4CCN(C5CCC5)CC4)CC3)cc2)C1` (centres unmarked) [Compound 646, 1-cyclobutyl-4-[(4-{4-[(3,5-dimethylpiperidin-1-yl)carbonyl]phenyl}piperazin-1-yl)acetyl]piperazine]: the Ki under setting [3] was less than 1000 nM.

`O=C(Cc1ccccc1Br)N1CCN(CC(=O)N2CCN(C3CCC3)CC2)CC1` [Compound 380, 1-[(2-bromophenyl)acetyl]-4-[2-(4-cyclobutylpiperazin-1-yl)-2-oxoethyl]piperazine]: under setting [2], the Ki was less than 1000 nM. On the same count and under the same terms, with `CC(C)N1CCN(C(=O)CN2CCN(c3ccc(Cl)c(Cl)c3)CC2)CC1` [Compound 283, 1-(3,4-dichlorophenyl)-4-[2-(4-isopropylpiperazin-1-yl)-2-oxoethyl]piperazine] the figure was less than 1000 nM. With `O=C(CN1CCN(c2ccc(-c3ccc4c(c3)OCO4)cc2)CC1)N1CCN(C2CCC2)CC1` [Compound 458, 1-[4-(1,3-benzodioxol-5-yl)phenyl]-4-[2-(4-cyclobutylpiperazin-1-yl)-2-oxoethyl]piperazine], the Ki under setting [6] was less than 1000 nM. `CC(C)N1CCN(C(=O)CN2CCN(c3ccc(C(F)(F)F)cn3)CC2C)CC1` (centres unmarked) [Compound 445, 1-[2-(4-isopropylpiperazin-1-yl)-2-oxoethyl]-2-methyl-4-[5-(trifluoromethyl)pyridin-2-yl]piperazine]: under setting [6], the Ki was less than 1000 nM. With `CCCNC(=O)c1cccc(N2CCN(CC(=O)N3CCN(C4CCC4)CC3)CC2)c1` [Compound 1072, 3-{4-[2-(4-cyclobutylpiperazin-1-yl)-2-oxoethyl]piperazin-1-yl}-N-propylbenzamide], the Ki under setting [4] was less than 1000 nM. Take `CC(C)N1CCN(C(=O)CN2CCN(c3ccc(C(F)(F)F)cc3)CC2)CC1` [Compound 845, 1-isopropyl-4-({4-[4-(trifluoromethyl)phenyl]piperazin-1-yl}acetyl)piperazine]: the Ki under setting [1] is less than 1000 nM.

`O=C(NC1CCN(CC(=O)N2CCN(C3CCC3)CC2)CC1)c1ccccc1` [Compound 1225, N-{1-[2-(4-cyclobutylpiperazin-1-yl)-2-oxoethyl]piperidin-4-yl}benzamide]: the Ki under setting [5] is less than 1000 nM. As to `CCC(C)N1CCN(C(=O)CN2CCN(c3cccc(C)c3)C(C)C2)CC1` (centres unmarked) [Compound 1114, 4-[2-(4-sec-butylpiperazin-1-yl)-2-oxoethyl]-2-methyl-1-(3-methylphenyl)piperazine], the Ki under setting [4] was less than 1000 nM.

By Ki is commonly meant the equilibrium dissociation constant of an inhibitor or competing ligand from its target.

(Values after patent publication US7851474B2, “Dipiperazinyl ketones and related analogues” (Neurogen Corporation, priority 2005, dated 2010).)
